Measured values as given in patent US20260027116A1, “Methods of Treating Chronic Graft-Versus-Host Disease Following Allogeneic Hematopoietic Stem Cell Transplantation” (Kadmon Corporation, LLC, priority 2022, published 2026).

Legend:
CYP3A4 = CYP3A4 (Homo sapiens, UniProt P08684); test: metabolism in vitro; assay type: in vitro ADME
[1] = test system: chronic graft-versus-host disease (cGVHD); test: Example 1 phase IIa study: response per 2014 NIH cGVHD criteria (ORR, BOR, DOR, TTR, TTNT, FFS, OS, organ response); assay type: in vivo, human; settings: for DOR, median (95% CI) / TTR, median: responder population
From the text: Eligible patients were allogeneic bone marrow transplant or allogeneic hematopoietic cell transplant (alloHCT) recipients of age≥18 years with persistent cGVHD manifestations after having received one to three prior systemic lines of therapy and who were receiving corticosteroid treatment with or without a calcincurin inhibitor and/or concurrent extracorporeal photopheresis.
Inclusion criteria. Adult male and female subjects at least 18 years of age who had allogenic bone marrow transplant or hematopoietic stem cell transplantation. Received glucocorticoid therapy and calcineurin therapy or glucocorticoid therapy alone for cGVHD at study entry. Participants on calcineurin therapy only, without glucocorticoid therapy, were not eligible. Participants also received other therapies thought not to be immunosuppressive (such as extracorporeal photopheresis; ECP), were considered for enrollment in this study on a case-by-case basis. […] No more than 3 prior lines of treatment for cGVHD. Karnofsky Performance Scale of greater than (>) 40.
Exclusion Criteria. Participant who was pregnant or breastfeeding. Received an investigational GVHD treatment within 28 days of study entry. Had acute GVHD. Taken any medication known to be a moderate or strong inhibitor of the cytochrome (CY) P3A4 isozyme or any drugs that are moderate or strong CYP3A4 inducers. History or other evidence of severe illness or any other conditions that would make the participant, in the opinion of the investigator, unsuitable for the study (such as poorly controlled psychiatric disease or coronary artery disease). Regular and excessive use of alcohol within the 6 months prior to study entry defined as alcohol intake>14 drinks per week in a man or >7 drinks per week in a woman. Approximately 10 grams of alcohol equals one “drink” unit. One unit equals 1 ounce of distilled spirits, one 12-ounce beer, or one 4-ounce glass of wine. Known history of human immunodeficiency virus or active hepatitis C virus or hepatitis B virus. Diagnosed with another malignancy (other than malignancy for which transplant was performed) within 3 years of enrollment, with the exception of completely resected basal cell or squamous cell carcinoma of the skin, resected in situ cervical malignancy, resected breast ductal carcinoma in situ, or low-risk prostate cancer after curative resection. Relapse of the underlying cancer or post-transplant lymphoproliferative disease at the time of screening. […] Taken other immunosuppressant drugs for GVHD, including mammalian target of rapamycin inhibitors (Note: Only steroids, calcineurin inhibitors, and ECP are acceptable). Corrected QT interval using Fridericia's formula >450 milliseconds.
(FIG. 1) Before enrollment of the subsequent cohort, safety data in each previous cohort were analyzed after eight patients reached two months of treatment to assure that there was no safety signal. […] No safety concerns were identified, allowing for planned dose escalation.
Progression was defined per the 2014 NIH cGVHD Consensus Criteria. Long-term follow-up was conducted every 8 weeks until study closeout. […] Screening was conducted within 28 days of the first study dose. Response was initially assessed after two cycles; however, this was amended to evaluate response on day 1 of each cycle, starting at cycle 2 day 1.
All responses were assessed by the investigators.
Assuming a best ORR of 25%, which was determined to be clinically meaningful, the study was expected to have approximately 90% probability to show a response in ≥2 patients per cohort. This study was not powered to show significant differences between cohorts with respect to efficacy, AEs, or PD analyses. The primary analysis was conducted using the safety population, defined as enrolled patients who received ≥1 dose of study medication. The Clopper-Pearson (exact) method was used to construct the two-sided 95% CI for ORR. The Kaplan-Meier (K-M) method was used to calculate estimates of FFS and OS. […]

Sequence of CYP3A4 (P08684 whole entry): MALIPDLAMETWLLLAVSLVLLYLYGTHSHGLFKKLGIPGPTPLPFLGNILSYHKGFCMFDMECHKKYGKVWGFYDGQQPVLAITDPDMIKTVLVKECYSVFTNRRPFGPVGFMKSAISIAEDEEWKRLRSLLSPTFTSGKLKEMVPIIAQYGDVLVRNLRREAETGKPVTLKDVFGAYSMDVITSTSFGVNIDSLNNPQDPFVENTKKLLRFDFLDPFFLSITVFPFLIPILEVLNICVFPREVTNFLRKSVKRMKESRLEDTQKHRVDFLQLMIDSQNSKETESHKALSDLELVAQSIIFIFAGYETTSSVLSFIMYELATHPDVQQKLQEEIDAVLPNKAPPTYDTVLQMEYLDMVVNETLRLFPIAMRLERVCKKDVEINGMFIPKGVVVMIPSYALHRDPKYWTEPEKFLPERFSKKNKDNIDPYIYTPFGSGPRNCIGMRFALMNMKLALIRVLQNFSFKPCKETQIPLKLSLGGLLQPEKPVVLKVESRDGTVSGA

SMILES: CC(C)NC(=O)COc1cccc(-c2nc(Nc3ccc4[nH]ncc4c3)c3ccccc3n2)c1 [Belumosudil, 2-{3-[4-(1H-indazol-5-ylamino)-2-quinazolinyl]phenoxy}-N-(propan-2-yl) acetamide]
- metabolism by CYP3A4 (CYP3A4): primarily metabolized
- BOR CR, participants (%) ([1]; Cohort 1 200 mg QD): 0 (0%) participants
- BOR LOR-M, participants (%) ([1]; Cohort 1 200 mg QD): 2 (12%) participants
- BOR LOR-P, participants (%) ([1]; Cohort 1 200 mg QD): 2 (12%) participants
- BOR LOR-U, participants (%) ([1]; Cohort 1 200 mg QD): 2 (12%) participants
- BOR PR, participants (%) ([1]; Cohort 1 200 mg QD): 11 (65%) participants
- FFS, median (95% CI) ([1]; Cohort 1 200 mg QD): 11 (4-na* %) months
- ORR subgroup refractory to previous LOT, n/N ([1]; Cohort 1 200 mg QD): 7/11
- ORR subgroup severe cGVHD, n/N ([1]; Cohort 1 200 mg QD): 8/12
- ORR subgroup ≤2 prior LOTs, n/N ([1]; Cohort 1 200 mg QD): 10/15
- ORR subgroup ≤4 organs involved, n/N ([1]; Cohort 1 200 mg QD): 4/8
- ORR, % (95% CI) ([1]; Cohort 1 200 mg QD): 65%
- TTNT, median (95% CI) ([1]; Cohort 1 200 mg QD): 15 (5-NA* %) months
- best response (CR or PR) in Skin, percentage of participants ([1]; Cohort 1 200 mg QD): (23%)
- best response in Esophagus, percentage of participants ([1]; Cohort 1 200 mg QD): (50%)
- best response in Eyes, percentage of participants ([1]; Cohort 1 200 mg QD): (36%)
- best response in Joints and Fascia, percentage of participants ([1]; Cohort 1 200 mg QD): (55%)
- best response in Lower GI tract, percentage of participants ([1]; Cohort 1 200 mg QD): (0%)
- best response in Lungs, percentage of participants ([1]; Cohort 1 200 mg QD): (0%)
- best response in Mouth, percentage of participants ([1]; Cohort 1 200 mg QD): (46%)
- best response in Upper GI tract, percentage of participants ([1]; Cohort 1 200 mg QD): (100%)
- DOR, median (95% CI) ([1]; Cohort 1, 200 mg QD): 40 (8-na* %) weeks
- TTR, median ([1]; Cohort 1, 200 mg QD): 8.14 weeks
- BOR CR, participants (%) ([1]; Cohort 2 200 mg BID): 0 (0%) participants
- BOR LOR-M, participants (%) ([1]; Cohort 2 200 mg BID): 1 (6%) participants
- BOR LOR-P, participants (%) ([1]; Cohort 2 200 mg BID): 1 (6%) participants
- BOR LOR-U, participants (%) ([1]; Cohort 2 200 mg BID): 3 (19%) participants
- BOR PR, participants (%) ([1]; Cohort 2 200 mg BID): 11 (69%) participants
- FFS, median (95% CI) ([1]; Cohort 2 200 mg BID): 10 (4-19%) months
- ORR subgroup refractory to previous LOT, n/N ([1]; Cohort 2 200 mg BID): 6/9
- ORR subgroup severe cGVHD, n/N ([1]; Cohort 2 200 mg BID): 9/14
- ORR subgroup ≤2 prior LOTs, n/N ([1]; Cohort 2 200 mg BID): 5/8
- ORR subgroup ≤4 organs involved, n/N ([1]; Cohort 2 200 mg BID): 8/10
- ORR, % (95% CI) ([1]; Cohort 2 200 mg BID): 69%
- TTNT, median (95% CI) ([1]; Cohort 2 200 mg BID): 10 (4-19%) months
- best response (CR or PR) in Skin, percentage of participants ([1]; Cohort 2 200 mg BID): (17%)
- best response in Eyes, percentage of participants ([1]; Cohort 2 200 mg BID): (36%)
- best response in Joints and Fascia, percentage of participants ([1]; Cohort 2 200 mg BID): (46%)
- best response in Liver, percentage of participants ([1]; Cohort 2 200 mg BID): (50%)
- best response in Lower GI tract, percentage of participants ([1]; Cohort 2 200 mg BID): (100%)
- best response in Lungs, percentage of participants ([1]; Cohort 2 200 mg BID): (0%)
- best response in Mouth, percentage of participants ([1]; Cohort 2 200 mg BID): (46%)
- best response in Upper GI tract, percentage of participants ([1]; Cohort 2 200 mg BID): (100%)
- DOR, median (95% CI) ([1]; Cohort 2, 200 mg BID): 11 (2-35%) weeks
- TTR, median ([1]; Cohort 2, 200 mg BID): 8.14 weeks
- BOR CR, participants (%) ([1]; Cohort 3 400 mg QD): 0 (0%) participants
- BOR LOR-M, participants (%) ([1]; Cohort 3 400 mg QD): 0 (0%) participants
- BOR LOR-P, participants (%) ([1]; Cohort 3 400 mg QD): 1 (5%) participants
- BOR LOR-U, participants (%) ([1]; Cohort 3 400 mg QD): 4 (19%) participants
- BOR PR, participants (%) ([1]; Cohort 3 400 mg QD): 12 (57%) participants
- FFS, median (95% CI) ([1]; Cohort 3 400 mg QD): 10 (3-16%) months
- ORR subgroup refractory to previous LOT, n/N ([1]; Cohort 3 400 mg QD): 9/15
- ORR subgroup severe cGVHD, n/N ([1]; Cohort 3 400 mg QD): 8/16
- ORR subgroup ≤2 prior LOTs, n/N ([1]; Cohort 3 400 mg QD): 8/12
- ORR subgroup ≤4 organs involved, n/N ([1]; Cohort 3 400 mg QD): 7/9
- ORR, % (95% CI) ([1]; Cohort 3 400 mg QD): 62%
- TTNT, median (95% CI) ([1]; Cohort 3 400 mg QD): 14 (3-NA %) months
- best response (CR or PR) in Skin, percentage of participants ([1]; Cohort 3 400 mg QD): (13%)
- best response in Esophagus, percentage of participants ([1]; Cohort 3 400 mg QD): (25%)
- best response in Eyes, percentage of participants ([1]; Cohort 3 400 mg QD): (24%)
- best response in Joints and Fascia, percentage of participants ([1]; Cohort 3 400 mg QD): (42%)
- best response in Lower GI tract, percentage of participants ([1]; Cohort 3 400 mg QD): (0%)
- best response in Lungs, percentage of participants ([1]; Cohort 3 400 mg QD): (30%)
- best response in Mouth, percentage of participants ([1]; Cohort 3 400 mg QD): (46%)
- best response in Upper GI tract, percentage of participants ([1]; Cohort 3 400 mg QD): (50%)
- DOR, median (95% CI) ([1]; Cohort 3, 400 mg QD): 16 (4-38%) weeks
- TTR, median ([1]; Cohort 3, 400 mg QD): 8.07 weeks
- 2-year OS rate ([1]; Example 1): 82%
- 12-month FFS rate with response ([1]; Example 1): 24%
- ORR among patients with nonsevere cGVHD ([1]; Example 1): 83%
- median DOR across all responders ([1]; Example 1): 35 weeks
- share of all responses achieved by first response assessment at week 8 ([1]; Example 1): > 75%
- FFS rate ([1]; Example 1, at 6 months): 76%
- FFS rate ([1]; Example 1, at 12 months): 47%
- median TTNT ([1]; Example 1, pooled): 14 months
- patients with progression in joints ([1]; Example 1, safety population (FIG. 3B)): 11 patients
- ORR subgroup refractory to previous LOT, % (95% CI) ([1]; Total, N=54): 63%
- ORR subgroup severe cGVHD, % (95% CI) ([1]; Total, N=54): 60%
- ORR subgroup ≤2 prior LOTs, % (95% CI) ([1]; Total, N=54): 66%
- ORR subgroup ≤4 organs involved, % (95% CI) ([1]; Total, N=54): 70%
- ORR, % (95% CI) ([1]; Total, N=54): 65%
- ORR subgroup refractory to previous LOT, n/N ([1]; Total, N=54, listed as KD025): 22/35
- ORR subgroup severe cGVHD, n/N ([1]; Total, N=54, listed as KD025): 25/42
- ORR subgroup ≤2 prior LOTs, n/N ([1]; Total, N=54, listed as KD025): 23/35
- ORR subgroup ≤4 organs involved, n/N ([1]; Total, N=54, listed as KD025): 19/27
